Measured values as given in patent US11407736B2 (priority 2019, dated 2022).
Read-outs that look alike come from different tables or passages of the source.

Legend:
[1] = biological target: RIPK1 (Homo sapiens (Human), UniProt Q13546); assay: RIPK1 ADP-Glo biochemical kinase assay
Experimental: The final reaction volume was 5.0ul.
Adding 5 μl of ADP-Glo™ terminated the reaction.

[2] = test system: L929 cells; assay: L929 cell necroptosis assay (TNFa + zVAD, CellTiter-Glo); type: cell-based, murine; details: TNFa + zVAD, read-out: L929-CTG-recovery, L929, TNFa + zVAD (IC50)
Method in brief: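 Necroptosis was read as CellTiter-Glo luminescence 18 hours after TNFa stimulation at 37° C, 5% CO2. Prior to that, L929 cells (10K/well, plated 18 h) received fresh medium with 40 uM zVAD-fmk plus 4-fold serially diluted compound.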

[3] = test system: U937 cells; assay: U937 cell necroptosis assay (TNFa + zVAD, CellTiter-Glo); type: cell-based, human; details: TNFa + zVAD, read-out: U937 Zvad TNF CTG Recovery, U937, TNFa + zVAD (IC50)
Method in brief: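 Necroptosis was induced with TNFa at 2 ng/mL final for 18 h at 37 °C, following 1 h compound pre-incubation in the presence of zVAD-fmk (60 uM for U937 plating medium, 40 uM for L929 medium). Luminescent CellTiter-Glo signal gave relative cell survival.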

[4] = read-out: RIPK1 ADP-Glo Kinase (IC50)
[5] = Homo sapiens, U-937, U937 cells

Sequence of RIPK1 (Q13546 whole entry, species assumed): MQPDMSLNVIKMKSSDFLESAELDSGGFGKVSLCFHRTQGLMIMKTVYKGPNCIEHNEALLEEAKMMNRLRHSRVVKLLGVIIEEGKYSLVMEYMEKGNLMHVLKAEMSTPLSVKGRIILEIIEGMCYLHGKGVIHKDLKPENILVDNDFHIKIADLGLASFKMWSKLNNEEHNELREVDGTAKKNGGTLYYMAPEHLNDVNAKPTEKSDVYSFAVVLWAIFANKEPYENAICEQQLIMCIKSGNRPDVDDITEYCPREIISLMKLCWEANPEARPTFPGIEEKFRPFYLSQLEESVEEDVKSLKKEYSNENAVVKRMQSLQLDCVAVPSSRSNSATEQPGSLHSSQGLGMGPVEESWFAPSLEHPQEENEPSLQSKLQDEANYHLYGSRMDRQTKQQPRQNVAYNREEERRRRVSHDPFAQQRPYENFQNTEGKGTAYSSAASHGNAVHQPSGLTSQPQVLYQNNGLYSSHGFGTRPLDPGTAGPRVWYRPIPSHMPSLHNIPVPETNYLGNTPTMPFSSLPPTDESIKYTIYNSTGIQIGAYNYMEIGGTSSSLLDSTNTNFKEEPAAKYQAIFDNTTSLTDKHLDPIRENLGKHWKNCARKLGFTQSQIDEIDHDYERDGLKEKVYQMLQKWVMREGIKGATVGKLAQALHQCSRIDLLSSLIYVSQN

IC50 [1, 4]	SMILES	IC50 ([2]; Mus musculus, L929, L929 cells)	IC50 [3, 5]	IC50 [1]	IC50 ([2]; L929 cells)	IC50 ([3]; U937 cells)
0.077 µM	CN1C(=O)[C@@H](NC(=O)c2ncn(Cc3c(Cl)cccc3Cl)n2)COc2ccc(CN3CCN(c4ccncc4)CC3)cc21 [Compound I-21, (S)-1-(2,6-dichlorobenzyl)-N-(5-methyl-4-oxo-7-((4-(pyridin-4-yl)piperazin-1-yl)methyl)-2,3,4,5-tetrahydrobenzo[b][1,4]oxazepin-3-yl)-1H-1,2,4-triazole-3-carboxamide]	1.31 µM	0.0025 µM			
0.048 µM	CN1C(=O)[C@@H](NC(=O)c2n[nH]c(Cc3ccccc3)n2)COc2ccc(/C=C/C(=O)N3CCCC3)cc21 [Compound I-22, (S,E)-5-benzyl-N-(5-methyl-4-oxo-7-(3-oxo-3-(pyrrolidin-1-yl)prop-1-en-1-yl)-2,3,4,5-tetrahydrobenzo[b][1,4]oxazepin-3-yl)-1H-1,2,4-triazole-3-carboxamide]	3.38 µM	0.0048 µM			
0.0352 µM	CN1C(=O)[C@@H](NC(=O)c2n[nH]c(Cc3ccccc3)n2)COc2ccc(/C=C/C(=O)NC3CC3)cc21 [Compound I-23, (S,E)-5-benzyl-N-(7-(3-(cyclopropylamino)-3-oxoprop-1-en-1-yl)-5-methyl-4-oxo-2,3,4,5-tetrahydrobenzo[b][1,4]oxazepin-3-yl)-1H-1,2,4-triazole-3-carboxamide]	14.5 µM	0.0067 µM			
0.0592 µM	CN1C(=O)[C@@H](NC(=O)c2n[nH]c(Cc3ccccc3)n2)COc2ccc(CN3CCn4ncnc4C3)cc21 [Compound I-24, (S)-5-benzyl-N-(7-((5,6-dihydro-[1,2,4]triazolo[1,5-a]pyrazin-7(8H)-yl)methyl)-5-methyl-4-oxo-2,3,4,5-tetrahydrobenzo[b][1,4]oxazepin-3-yl)-1H-1,2,4-triazole-3-carboxamide]	4.61 µM	0.0036 µM			
0.051 µM	CN1C(=O)[C@@H](NC(=O)c2ncn(Cc3ccccc3)n2)COc2ccc(CN3CCn4ncnc4C3)cc21 [Compound I-25, (S)-1-benzyl-N-(7-((5,6-dihydro-[1,2,4]triazolo[1,5-a]pyrazin-7(8H)-yl)methyl)-5-methyl-4-oxo-2,3,4,5-tetrahydrobenzo[b][1,4]oxazepin-3-yl)-1H-1,2,4-triazole-3-carboxamide]	0.489 µM	0.0027 µM			
0.0656 µM	CN1C(=O)[C@@H](NC(=O)c2ncn(Cc3ccccc3)n2)COc2ccc(CCC(=O)NC3CC3)cc21 [Compound I-26, (S)-1-benzyl-N-(7-(3-(cyclopropylamino)-3-oxopropyl)-5-methyl-4-oxo-2,3,4,5-tetrahydrobenzo[b][1,4]oxazepin-3-yl)-1H-1,2,4-triazole-3-carboxamide]	0.613 µM	0.0044 µM			
0.0375 µM	CN1C(=O)[C@@H](NC(=O)c2n[nH]c(Cc3ccccc3)n2)COc2ccc(CCC(C)(C)O)cc21 [Compound I-28, (S)-5-benzyl-N-(7-(3-hydroxy-3-methylbutyl)-5-methyl-4-oxo-2,3,4,5-tetrahydrobenzo[b][1,4]oxazepin-3-yl)-1H-1,2,4-triazole-3-carboxamide]	0.673 µM	0.0054 µM			
0.0124 µM	CN1C(=O)[C@@H](NC(=O)c2ncn(Cc3ccccc3)n2)COc2ccc(C#CC(C)(C)O)cc21 [Compound I-29, (S)-1-benzyl-N-(7-(3-hydroxy-3-methylbut-1-yn-1-yl)-5-methyl-4-oxo-2,3,4,5-tetrahydrobenzo[b][1,4]oxazepin-3-yl)-1H-1,2,4-triazole-3-carboxamide]	0.0088 µM	0.0023 µM			
	CN1C(=O)[C@@H](NC(=O)c2n[nH]c(Cc3ccccc3)n2)COc2ccc(C#CC(C)(C)O)cc21 [Compound I-30, (S)-5-benzyl-N-(7-(3-hydroxy-3-methylbut-1-yn-1-yl)-5-methyl-4-oxo-2,3,4,5-tetrahydrobenzo[b][1,4]oxazepin-3-yl)-1H-1,2,4-triazole-3-carboxamide]	0.0723 µM	0.0036 µM	0.0402 µM		
0.0219 µM	CN1C(=O)[C@@H](NC(=O)c2ncn(Cc3ccccc3)n2)COc2ccc(CCC(N)=O)cc21 [Compound I-32, (S)—N-(7-(3-amino-3-oxopropyl)-5-methyl-4-oxo-2,3,4,5-tetrahydrobenzo[b][1,4]oxazepin-3-yl)-1-benzyl-1H-1,2,4-triazole-3-carboxamide]	17.7 µM	0.0027 µM			
0.0145 µM	CN1C(=O)[C@@H](NC(=O)c2ncn(Cc3ccccc3)n2)COc2ccc(CCC(=O)N3CCCC3)cc21 [Compound I-33, (S)-1-benzyl-N-(5-methyl-4-oxo-7-(3-oxo-3-(pyrrolidin-1-yl)propyl)-2,3,4,5-tetrahydrobenzo[b][1,4]oxazepin-3-yl)-1H-1,2,4-triazole-3-carboxamide]	1.23 µM	0.0015 µM			
0.0492 µM	CN1C(=O)[C@@H](NC(=O)c2n[nH]c(Cc3ccc(F)cc3F)n2)COc2ccc(CCC(=O)N3CCCC3)cc21 [Compound I-34, (S)-5-(2,4-difluorobenzyl)-N-(5-methyl-4-oxo-7-(3-oxo-3-(pyrrolidin-1-yl)propyl)-2,3,4,5-tetrahydrobenzo[b][1,4]oxazepin-3-yl)-1H-1,2,4-triazole-3-carboxamide]	9.59 µM	0.0222 µM			
0.0223 µM	CN1C(=O)[C@@H](NC(=O)c2n[nH]c(Cc3ccccc3)n2)COc2ccc(C#CCCCO)cc21 [Compound I-35, (S)-5-benzyl-N-(7-(5-hydroxypent-1-yn-1-yl)-5-methyl-4-oxo-2,3,4,5-tetrahydrobenzo[b][1,4]oxazepin-3-yl)-1H-1,2,4-triazole-3-carboxamide]	0.0178 µM	0.0031 µM			
0.0565 µM	CN1C(=O)[C@@H](NC(=O)c2ncn(Cc3ccccc3)n2)COc2ccc(C#CCCOc3ccc4ncccc4c3)cc21 [Compound I-37, (S)-1-benzyl-N-(5-methyl-4-oxo-7-(4-(quinolin-6-yloxy)but-1-yn-1-yl)-2,3,4,5-tetrahydrobenzo[b][1,4]oxazepin-3-yl)-1H-1,2,4-triazole-3-carboxamide]	0.0002 µM	0.001 µM			
0.068 µM	CN1C(=O)[C@@H](NC(=O)c2n[nH]c(Cc3ccccc3)n2)COc2ccc(C#CCCOc3ccc4ncccc4c3)cc21 [Compound I-38, (S)-5-benzyl-N-(5-methyl-4-oxo-7-(4-(quinolin-6-yloxy)but-1-yn-1-yl)-2,3,4,5-tetrahydrobenzo[b][1,4]oxazepin-3-yl)-1H-1,2,4-triazole-3-carboxamide]	0.0005 µM	0.0036 µM			
0.0364 µM	CN1C(=O)[C@@H](NC(=O)c2ncn(Cc3ccccc3)n2)COc2ccc(CN3CCn4nc(C(F)(F)F)nc4C3)cc21 [Compound I-39, (S)-1-benzyl-N-(5-methyl-4-oxo-7-((2-(trifluoromethyl)-5,6-dihydro-[1,2,4]triazolo[1,5-a]pyrazin-7(8H)-yl)methyl)-2,3,4,5-tetrahydrobenzo[b][1,4]oxazepin-3-yl)-1H-1,2,4-triazole-3-carboxamide]	0.0004 µM	0.0027 µM			
0.0887 µM	CN1C(=O)[C@@H](NC(=O)c2n[nH]c(Cc3ccccc3)n2)COc2ccc(CN3CCn4nc(C(F)(F)F)nc4C3)cc21 [Compound I-40, (S)-5-benzyl-N-(5-methyl-4-oxo-7-((2-(trifluoromethyl)-5,6-dihydro-[1,2,4]triazolo[1,5-a]pyrazin-7(8H)-yl)methyl)-2,3,4,5-tetrahydrobenzo[b][1,4]oxazepin-3-yl)-1H-1,2,4-triazole-3-carboxamide]	0.0003 µM	0.0023 µM			
0.08 µM	CN1C(=O)[C@@H](NC(=O)c2n[nH]c(Cc3ccccc3)n2)COc2ccc(C#CCCOc3ccc4cccnc4c3)cc21 [Compound I-41, (S)-5-benzyl-N-(5-methyl-4-oxo-7-(4-(quinolin-7-yloxy)but-1-yn-1-yl)-2,3,4,5-tetrahydrobenzo[b][1,4]oxazepin-3-yl)-1H-1,2,4-triazole-3-carboxamide]	0.0016 µM	0.0052 µM			
0.0477 µM	CN1C(=O)[C@@H](NC(=O)c2ncn(Cc3ccccc3)n2)COc2ccc(C#CCCOc3ccc4cccnc4c3)cc21 [Compound I-42, (S)-1-benzyl-N-(5-methyl-4-oxo-7-(4-(quinolin-7-yloxy)but-1-yn-1-yl)-2,3,4,5-tetrahydrobenzo[b][1,4]oxazepin-3-yl)-1H-1,2,4-triazole-3-carboxamide]	0.0012 µM	0.0033 µM			
0.0854 µM	CN1C(=O)[C@@H](NC(=O)c2n[nH]c(Cc3ccc(F)cc3F)n2)COc2ccc(C#CC(C)(C)O)cc21 [Compound I-43, (S)-5-(2,4-difluorobenzyl)-N-(7-(3-hydroxy-3-methylbut-1-yn-1-yl)-5-methyl-4-oxo-2,3,4,5-tetrahydrobenzo[b][1,4]oxazepin-3-yl)-1H-1,2,4-triazole-3-carboxamide]	0.0009 µM	0.0038 µM			

SMILES	IC50 [1, 4]	IC50 ([2]; Mus musculus, L929, L929 cells)	IC50 [3, 5]	IC50 [1]	IC50 ([2]; L929 cells)	IC50 ([3]; U937 cells)
CN1C(=O)[C@@H](NC(=O)c2n[nH]c(Cc3ccccc3)n2)COc2ccc(C#CC(C)(C)O)cc21 [Compound I-36, (S)-5-benzyl-3-((7-(3-hydroxy-3-methylbut-1-yn-1-yl)-5-methyl-4-oxo-2,3,4,5-tetrahydrobenzo[b][1,4]oxazepin-3-yl)carbamoyl)-1,2,4-triazol-1-ide]	0.0338 µM				0.0014 µM	0.0022 µM
